The text below walks through data of publication PMC11165727, “Improvement effects of a novel Chinese herbal formula in imiquimod and IL-23-stimulated mouse models of psoriasis” (Chinese Medicine, 2024).

Data set [1] concerns IMQ-induced mouse psoriasis model. Kind of data set: IMQ-induced mouse psoriasis model: body weight, dorsal skin thickness, PASI, epidermal thickness. Format: in vivo, Balb/c mice. The procedure:
(§1) A total of 48 Balb/c mice were randomly assigned to: (a) normal control group (NC); (b) IMQ group; (c) IMQ plus dexamethasone (DXM, as the positive control, 3 mg/kg) group; and (d-f) IMQ plus ISDF (3.15, 6.30 and 9.45 g/kg) groups. All mice, except the NC group, were topically dosed with 62.5 mg Aldara (iNova pharmaceuticals, Australia) daily on the shaved dorsal skin. After the seven-day sensitization of IMQ, the psoriasis symptoms appeared on the dorsal area. Between day 8 and day 22, Aldara cream was applied once every three days for a total of six applications, with each application consisting of 62.5 mg of the cream being applied to the same area. ISDF and DXM were suspended in 0.5% CMC-Na and orally given to the mice once daily for two weeks. Treatments were initiated seven days after the first IMQ sensitization. The mice in the NC group and the IMQ group were administered with only the vehicle for two weeks. (Fig. 1A).
(§2) The severity of psoriatic lesions on the dorsal area of mice was assessed by psoriasis area and severity index (PASI). The researcher scored the degree of erythema and skin scaling on a scale of zero to four, where 0: no symptoms, 1: slight, 2: moderate, 3: severe, and 4: very severe. The dorsal skin thickness was measured using an electronic vernier caliper which was placed on the middle line of the dorsal area.
(§3) The dorsal skin tissues were harvested and fixed in 4% paraformaldehyde (PFA) for one day and then embedded in paraffin, followed by section, deparaffinization and rehydration. Five-micrometre sections of dorsal skin were stained with hematoxylin & eosin and observed through a light microscope (Zeiss AxioObserver Z1, Germany) to assess histopathological changes.

In data set [2] the test system is IL-17A, IL-22, IL-6, IL-4. Kind of data set: ELISA of inflammatory cytokines in serum and dorsal skin of IMQ-induced mice. Format: in vivo, Balb/c mice. Particulars: IMQ model; DXM 3 mg/kg oral; vs IMQ group. As to the method: as §1
(§4) After the last drug treatment, blood samples were harvested and stored at room temperature for one hour, and then centrifuged at 3500 rpm for 20 min. The ELISA kits were used to collect the supernatant and determine the contents of IL-17A (ab199081), IL-22 (ab223857), IL-6 (ab222503) (Abcam, USA) and IL-23 (BMS6017, Thermo Fisher Scientific, USA). After being sacrificed, mouse skin tissues were collected, homogenized with cell extract buffer from Abcam, USA, and centrifuged at 12,000 rpm for 30 min (at 4 °C). The skin samples were analyzed for total protein contents using a […] assay kit. The concentrations of IL-4, IL-17A, IL-22 and IL-23 in the supernatant were determined.
Background: In an ELISA, binding on a coated surface is turned into a signal by an enzyme label.

Data set [3] relates to gene expression of IL-4, IL-6, IL-1β and TNF-α. The data set can be described thus: Real-time PCR on dorsal skin tissues of IMQ-induced mice. Format: in vivo, Balb/c mice. Particulars: IMQ model; DXM 3 mg/kg oral. As to the method:
as §1
The same experimental procedure was used as described in our previous study. In the present study, we conducted Mouse TaqMan gene expression assays using the following assay IDs: IL-4 (Mm00445259_m1), IL-6 (Mm00446190_m1), IL-1β (Mm00434228_m1), TNF-α (Mm00443258_m1) and β-actin (Mm02619580_g1).
Background: In qPCR the cycle at which signal appears reflects the starting amount.

In data set [4] the test system is IL-23-induced mouse psoriasis model. Kind of data set: IL-23-induced mouse psoriasis model: body weight, dorsal skin thickness, PASI, epidermal thickness. It counts as in vivo, C57 mice. Particulars: IL-23 model, DXM 3 mg/kg oral. The procedure: (§5) A total of 48 C57 mice were randomly assigned to: (a) NC group; (b) IL-23 group; (c) IL-23 plus DXM (3 mg/kg) group; and (d–f) IL-23 plus ISDF (3.15, 6.30 and 9.45 g/kg) groups. Firstly, mice were pre-treated with ISDF or DXM before IL-23 injection. 0.5% CMC-Na was used to suspend ISDF and DXM which were orally given to mice once daily for two weeks, and the mice in the NC group and the IL-23 group were treated with only the vehicle for two weeks. The IL-23 administration was initiated 7 days post the first ISDF/DXM treatment. From day 8, mice concurrently orally received with ISDF/DXM treatment and intradermal injections of recombinant mouse IL-23 (Biolegend, USA) in two locations on the shaved dorsal skin at 1 μg/mouse/day using a 30-gauge needle for seven days. Sterile saline was used as the vehicle control for the NC group. After the seven-day sensitization of IL-23, the psoriasis symptoms appeared on the dorsal area of the mice. The weight of the mice and their dorsal skin thickness was monitored (on day 1, 7, and 14). On the last day, the scoring of the skin psoriasis severity was determined according to PASI after the last drug treatment (Fig. 2A).
as §2, §3

The test system of a further data set is IL-17A, IL-22, IL-23. Kind of data set: ELISA of cytokines in serum and injected skin of IL-23-induced mice. It counts as in vivo, C57 mice. Particulars: IL-23 model; DXM 3 mg/kg oral; vs IL-23 group. As to the method: as §5, §4
Data set [5] in a line: Pharmacokinetics of ISDF in rats: baicalin in plasma. Format: in vivo, Sprague–Dawley rats. Particulars: oral ISDF 18.90 g/kg. As to the method:
The rats were split into two groups, with 6 animals each: (a) an untreated control group, and (b) a group that received ISDF at a dosage of 18.90 g/kg. The rats were fasted overnight but had access to distilled water. Blood samples, around 0.4 mL, were harvested from the orbital bleeding while they were under anaesthesia with isoflurane. The blood samples were collected at several time points (5, 15, 30, 60, 120, 240, 480, and 1440 min) after the oral administration of ISDF to the rats. The blood was then centrifuged at 5000 rpm for 20 min (at 4 °C) to separate the plasma (upper) and blood cells (lower). The plasma (0.2 mL) was added with […] KH2PO4 (0.2 mL) and 1 mL methanol and acetonitrile (1:1) and vortexed for 10 min to precipitate protein, and then centrifugated at 10,000 rpm for five min to collect the supernatant. The supernatant was filtered, dried under nitrogen and then re-dissolved in methanol (0.2 mL) and stored at 4 °C [18]. The HPLC method was used to identify and quantify baicalin in plasma and berberine in erythrocytes, as previously published. All the data were shown as mean ± SEM. One-way ANOVA followed by the Bonferroni test was performed using GraphPad Prism v9.0. Statistical significance between experimental groups was considered when p < 0.05. The pharmacokinetics profile of ISDF was calculated using Drug and Statistics (DAS, China) software v2.0.

Data set [6] in a line: Pharmacokinetics of ISDF in rats: berberine in erythrocytes. Particulars: oral ISDF 18.90 g/kg. It counts as in vivo, Sprague–Dawley rats. As to the method:
The rats were split into two groups, with 6 animals each: (a) an untreated control group, and (b) a group that received ISDF at a dosage of 18.90 g/kg. The rats were fasted overnight but had access to distilled water. Blood samples, around 0.4 mL, were harvested from the orbital bleeding while they were under anaesthesia with isoflurane. The blood samples were collected at several time points (5, 15, 30, 60, 120, 240, 480, and 1440 min) after the oral administration of ISDF to the rats. The blood was then centrifuged at 5000 rpm for 20 min (at 4 °C) to separate the plasma (upper) and blood cells (lower). The blood cells were washed thrice with cold 0.9% saline, and then centrifuged at 3500 rpm for five min. The resulting erythrocytes were suspended in cold 0.9% saline (0.5 mL). Afterwards, the erythrocytes were mixed with an equal volume of 15% hydrochloric acid and heated at 60 ℃ for 6 h. They were then centrifugated at 12,000 rpm for 10 min to collect the supernatant, which was filtered and dried under nitrogen. Finally, it was re-dissolved with 0.2 mL methanol. The HPLC method was used to identify and quantify baicalin in plasma and berberine in erythrocytes, as previously published. All the data were shown as mean ± SEM. One-way ANOVA followed by the Bonferroni test was performed using GraphPad Prism v9.0. Statistical significance between experimental groups was considered when p < 0.05. The pharmacokinetics profile of ISDF was calculated using Drug and Statistics (DAS, China) software v2.0.

The mark [7] stands for this setting: Sprague-Dawley, rat, 18.9 g/kg, read-out: Area under the curve (AUC0-∞).
Where [8] appears, read: Sprague-Dawley, rat, 18.9 g/kg, read-out: Mean residence time (MRT0-t).
Where [9] appears, read: Sprague-Dawley, rat, 18.9 g/kg, read-out: The maximum concentration (Cmax).

For `C[C@@H]1C[C@H]2[C@@H]3CCC4=CC(=O)C=C[C@]4(C)[C@@]3(F)[C@@H](O)C[C@]2(C)[C@@]1(O)C(=O)CO` [DXM, dexamethasone], the Body weight result in data set [1] (DXM 3 mg/kg oral once daily, days 14 and 21, vs NC group) is given as “remarkable decrease”. Further, the “Decrease in PASI score” value in data set [1] (DXM 3 mg/kg oral, day 21, vs IMQ group) worked out at 79.41%. In addition, the “Reduction of dorsal skin thickness” value in data set [1] (DXM 3 mg/kg oral, two-week treatment, vs IMQ group) turned out to be 51.69%. In data set [1] (DXM 3 mg/kg oral, vs IMQ group), the “Decrease of epidermal thickness” value was determined as 52.75%. Besides, in data set [2], the “Decrease of serum IL-17A” value was 91.29%, the “Reduction of IL-17A content in dorsal skin” value was 75.98%, the “Reduction of serum IL-6” value stood at 88.91% and the “Reduction of serum IL-22” value is recorded as 67.47%. Further, the “Gene expression of IL-4, IL-6, IL-1β and TNF-α in skin” value in data set [3] is listed as “substantially down-regulate”. In addition, in data set [4], the Body weight result is listed as “significantly induced a body weight reduction”. Also, in data set [4] (day 14, vs IL-23 group), the “Decrease of dorsal skin thickness” value came out at 55.14% and the “Reduction of PASI score” value was found to be 85.24%. Further, in data set [4] (vs IL-23 group), the “Decrease of epidermal thickness” value is 72.26%. In the data set with IL-17A, IL-22, IL-23, the “Decrease of IL-23 level in the injected skin” value came to 43.34%, the “Reduction of serum IL-17A” value is listed as 62.20% and the “Reduction of serum IL-22 content” value turned out to be 39.12%.
On to `O=C(O)[C@H]1O[C@@H](Oc2cc3oc(-c4ccccc4)cc(=O)c3c(O)c2O)[C@H](O)[C@@H](O)[C@@H]1O` [Baicalin, baicalin], for which the AUC(0-inf) in data set [5] (setting [7]) was 10.1 ± 0.81 µg·h/mL. For the same compound, the MRT last in data set [5] (setting [8]) was found to be 7.98 ± 0.61 h. In data set [5] (setting [9]), the Cmax came out at 0.67 ± 0.06 µg/mL. Moreover, in data set [5], the “The time required for drug concentration to decrease by 50% (t1/2)” value is on record as 14.06 ± 3.25 h and the “Time to reach Cmax (Tmax)” value was 2.01 ± 0.28 h.
Regarding `COc1ccc2cc3[n+](cc2c1OC)CCc1cc2c(cc1-3)OCO2` [Berberine, berberine], the AUC(0-inf) in data set [6] (setting [7]) was 24.2 ± 17.4 µg·h/mL. Also, in data set [6] (setting [8]), the MRT last came to 9.24 ± 1.31 h. The Cmax in data set [6] (setting [9]) came to 1.44 ± 0.71 µg/mL. In addition, in data set [6], the “The time required for drug concentration to decrease by 50% (t1/2)” value turned out to be 10.77 ± 5.80 h and the “Time to reach Cmax (Tmax)” value came out at 2.33 ± 1.52 h.
